Results: patent publication US9057727B2, “Screening methods using G-protein coupled receptors and related compositions” (The General Hospital Corporation, priority 2007, dated 2015)
Square brackets hold non-standard residues; d marks the D form. Ends that are not written are not given here. Peptide text beside a SMILES is read from it. hArg = N=C(N)NCCCC[C@H](N)C(=O)O; Aib = CC(C)(N)C(=O)O

Experiments:
[1] = tested on: PTHR-CFPIC3/YFPCT (PTHR-cam); experiment: FRET analysis of ligand binding/receptor activation in HEK-293 cells; assay type: cell-based, human
Source text: HEK-293 cells stably transfected with a PTHR construct (PTHR-cam) containing cyan fluorescent protein (CFP) in the third intracellular loop and yellow fluorescent protein (YFP) in the carboxy-terminal tail, were used to assess the kinetics of ligand binding to, and dissociation from the PTHR. With PTHR-cam, excitation of the CFP with ultraviolet light (λexc=436 nm) produces an intramolecular FRET to the YFP, which is observable as an increase in light emission from YFP (λemm=535 nm) and a decrease in light emission from CFP λemm=480 nm). This FRET signal occurs in the ground-state receptor and decreases upon agonist binding. […] Data are from a single experiment, and identical results were obtained in at least three others.
The approach used exploits an intramolecular FRET signal that occurs in a human PTHR construct, PTHR-CFPIC3/YFPCT (formerly called PTHR-cam). This construct contains cyan-fluorescent protein (CFP) in the third intracellular loop and yellow-fluorescent protein (YFP) in the carboxy-terminal tail. A FRET signal is produced by PTHR-CFPIC3/YFPCT in the basal state, and this signal diminishes upon agonist binding, likely due to conformational change that occurs upon activation.
HEK-293 cells stably expressing HEK-PTHR-CFPIC3/YFPCT (previously called HEK-PTHR-Cam cells (Vilardaga et al., Nat. Biotechnol. 21:807-812 (2003)) were grown on glass coverslips and processed for FRET analysis as described. With these cells, excitation of the CFP (donor) in PTHR-CFPIC3/YFPCT with ultraviolet light (λmax.ex.=436 nm; λmax.em.=480 nm) produces an intramolecular FRET to the YFP (acceptor), resulting in emission from that YFP (λmax.ex.=480 nm, λmax.em.=535 nm). This FRET response is observable as a decrease in intensity of CFP light emission at 480 nm, and an increase in intensity of YFP light emission at 535 nm. The FRET signal is produced by PTHR-CFPIC3/YFPCT in the ground-state receptor and decreases upon binding of an agonist. […] Fluorescence was monitored using a Zeiss inverted microscope equipped with a 100× objective and a dual emission photometric system (Til Photonics), coupled to an avalanche photodiode detection system and an analog-digital converter (Axon Instruments). The FRET signal detected upon excitation at 436 nm was calculated as the normalized FRET ratio: FYFP(535 nm)/FCFP(480 nm) where FYFP(535 nm) is the emission at 535 nm, corrected for spillover of the CFP signal into the YFP channel, and FCFP(480 nm) is the emission at 480 nm, corrected for spillover (minimal) of the YFP emission into the CFP channel. Changes in fluorescence emissions due to photo-bleaching were subtracted.

[2] = biological target: T1, human PTH receptor (Homo sapiens, UniProt Q03431); experiment: cAMP in HRKRK-B7 cells EC50 (nM)
T1 construct: expressed in transfected cells
Source text: Table printed on a drawing sheet, Figure 25
Head of the field: cAMP in HRKRK-B7 cells EC50 (nM)
First copying reader's note: The column head prints the cell line as HRKRK-B7 while the title prints HKRK-B7.

[3] = biological target: hPTH1R (RG form of the human PTH receptor); experiment: RG memb: hPTH1R+dnGS *M-PTH(1-15)
[4] = Calcemic action in normal rats (blood ionized calcium); assay type: in vivo; settings: for calcemic action compared with control peptides, in words: normal and TPTX rats
Method: Binding to the rat PTHR was also measured in vitro.
Concentration of peptides in stock solution were adjusted by dilution with 25 mmol/L phosphate-citrate buffer/100 mmol/L NaCl/0.05% Tween 80 (pH. 5.0) (PC-buffer). All peptides were allowed to stand on ice immediately before administration.
Female SD-IGS rat at 8 weeks of age (Charles River Japan, Inc.) were measured for their body weight. Blood was collected by tail vein into heparinized capillary tubes and measured for baseline levels of blood ionized calcium and pH using Ca^++/pH analyzer (Model 634/Bayer Medical Ltd.) to give the corrected level of ionized calcium at pH 7.4 for each sample. Rats received intravenous administration of each peptides at a dose of 1 ml/kg. Peptides were administered to groups of 6 rats each respectively. At 1, 2, 4, or 6 hours after administration, blood was collected by tail vein to monitor the time course of corrected blood ionized calcium levels. The time course of changes in corrected ionized calcium levels, compared to vehicle, and are expressed as means+/−standard error.

T1 sequence (Q03431 27-593 limits assumed): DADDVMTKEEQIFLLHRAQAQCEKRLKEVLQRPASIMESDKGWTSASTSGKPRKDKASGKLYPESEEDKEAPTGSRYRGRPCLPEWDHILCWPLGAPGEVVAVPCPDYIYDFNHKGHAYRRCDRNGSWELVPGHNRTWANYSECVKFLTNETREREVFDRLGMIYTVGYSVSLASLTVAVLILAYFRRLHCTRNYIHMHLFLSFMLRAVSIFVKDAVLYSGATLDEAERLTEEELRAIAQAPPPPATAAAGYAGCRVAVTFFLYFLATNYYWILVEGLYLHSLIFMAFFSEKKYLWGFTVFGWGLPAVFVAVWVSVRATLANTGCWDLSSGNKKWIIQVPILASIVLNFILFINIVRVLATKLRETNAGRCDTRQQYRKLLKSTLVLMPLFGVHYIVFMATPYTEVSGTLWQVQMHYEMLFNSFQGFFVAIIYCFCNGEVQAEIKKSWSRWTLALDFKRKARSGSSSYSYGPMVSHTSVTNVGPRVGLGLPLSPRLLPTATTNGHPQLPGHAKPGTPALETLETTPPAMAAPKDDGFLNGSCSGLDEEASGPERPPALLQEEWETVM

| Molecule | reduction (magnitude) of FRET signal [1] [%] | EC50 [2] [nM] | calcemic action compared with control peptides, in words [4] | other results |
| --- | --- | --- | --- | --- |
| CC[C@H](C)[C@H](NC(=O)[C@H](CCC(=O)O)NC(=O)[C@H](CO)NC(=O)[C@@H](NC(=O)[C@@H](N)CO)C(C)C)C(=O)N[C@@H](CCC(N)=O)C(=O)N[C@@H](CC(C)C)C(=O)N[C@@H](CCSC)C(=O)N[C@@H](Cc1c[nH]cn1)C(=O)N[C@@H](CC(N)=O)C(=O)N[C@@H](CC(C)C)C(=O)NCC(=O)N[C@@H](CCCCN)C(=O)N[C@@H](Cc1c[nH]cn1)C(=O)N[C@@H](CC(C)C)C(=O)N[C@@H](CC(N)=O)C(=O)N[C@@H](CO)C(=O)N[C@@H](CCSC)C(=O)N[C@@H](CCC(=O)O)C(=O)N[C@@H](CCCNC(=N)N)C(=O)N[C@H](C(=O)N[C@@H](CCC(=O)O)C(=O)N[C@@H](Cc1c[nH]c2ccccc12)C(=O)N[C@@H](CC(C)C)C(=O)N[C@@H](CCCNC(=N)N)C(=O)N[C@@H](CCCCN)C(=O)N[C@@H](CCCCN)C(=O)N[C@@H](CC(C)C)C(=O)N[C@@H](CCC(N)=O)C(=O)N[C@@H](CC(=O)O)C(=O)N[C@H](C(=O)N[C@@H](Cc1c[nH]cn1)C(=O)N[C@@H](CC(N)=O)C(=O)N[C@@H](Cc1ccccc1)C(=O)O)C(C)C)C(C)C [hPTH(1-34), Human parathyroid hormone (1-34)] | ~13 | – | – | FRET signal after exchange to ligand-free buffer, in words [1]: remained suppressed |
| CC[C@H](C)[C@H](NC(=O)[C@H](CCC(=O)O)NC(=O)[C@H](C)NC(=O)[C@@H](NC(=O)[C@H](Cc1c[nH]cn1)NC(=O)[C@@H](NC(=O)[C@H](CC(=O)O)NC(=O)[C@H](CCC(N)=O)NC(=O)[C@H](CC(C)C)NC(=O)[C@H](CCCCN)NC(=O)[C@H](CCCCN)NC(=O)[C@H](CCCNC(=N)N)NC(=O)[C@H](CC(C)C)NC(=O)[C@H](Cc1c[nH]c2ccccc12)NC(=O)[C@H](CCC(=O)O)NC(=O)[C@@H](NC(=O)[C@H](CCCNC(=N)N)NC(=O)[C@H](CCC(=O)O)NC(=O)[C@H](CCSC)NC(=O)[C@H](CO)NC(=O)[C@H](CC(N)=O)NC(=O)[C@H](CC(C)C)NC(=O)[C@H](Cc1c[nH]cn1)NC(=O)[C@H](CCCCN)NC(=O)CNC(=O)[C@H](CC(C)C)NC(=O)[C@H](CC(N)=O)NC(=O)[C@H](Cc1c[nH]cn1)NC(=O)[C@H](CCSC)NC(=O)[C@H](CC(C)C)NC(=O)[C@H](CCC(N)=O)NC(=O)[C@@H](NC(=O)[C@H](CCC(=O)O)NC(=O)[C@H](CO)NC(=O)[C@@H](NC(=O)[C@@H](N)CO)C(C)C)[C@@H](C)CC)C(C)C)[C@@H](C)CC)[C@@H](C)O)C(=O)O [PTH(1-30)/PTHrP(31-36)] | – | 0.78 | – | IC50 [3]: 0.17 nM |
| CC[C@H](C)[C@H](NC(=O)[C@H](CCC(=O)O)NC(=O)[C@H](C)NC(=O)[C@@H](NC(=O)[C@H](Cc1c[nH]cn1)NC(=O)[C@@H](NC(=O)[C@H](CCC(=O)O)NC(=O)[C@H](C)NC(=O)[C@@H](NC(=O)[C@H](CC(C)C)NC(=O)[C@H](Cc1c[nH]cn1)NC(=O)[C@H](Cc1c[nH]cn1)NC(=O)[C@H](CC(C)C)NC(=O)[C@H](Cc1ccccc1)NC(=O)[C@H](Cc1ccccc1)NC(=O)[C@H](CCCNC(=N)N)NC(=O)[C@H](CCCNC(=N)N)NC(=O)[C@H](CCCNC(=N)N)NC(=O)[C@H](CCSC)NC(=O)[C@H](CO)NC(=O)[C@H](CC(N)=O)NC(=O)[C@H](CC(C)C)NC(=O)[C@H](Cc1c[nH]cn1)NC(=O)[C@H](CCCCN)NC(=O)CNC(=O)[C@H](CC(C)C)NC(=O)[C@H](CC(N)=O)NC(=O)[C@H](Cc1c[nH]cn1)NC(=O)[C@H](CCSC)NC(=O)[C@H](CC(C)C)NC(=O)[C@H](CCC(N)=O)NC(=O)[C@@H](NC(=O)[C@H](CCC(=O)O)NC(=O)[C@H](CO)NC(=O)[C@@H](NC(=O)[C@@H](N)CO)C(C)C)[C@@H](C)CC)[C@@H](C)CC)[C@@H](C)CC)[C@@H](C)O)C(=O)O [PTH(1-18)/PTHrP(19-36), hPTH(1-18)/PTHrP(19-36)] (H-SVSEIQLMHNLGKHLNSMRRRFFLHHLIAEIHTAEI-OH) | – | 1.34 | higher calcemic actions than did PTH(1-34) | – |
| AVAEIQLMHQRGKSIQDLRRRFFLHHLIAEIHTAEI (AVAEIQLMHQRGKSIQDLRRRFFLHHLIAEIHTAEI-OH) [Mc-PTH(1-11)/PTHrP(15-36)] | – | – | – | calcemic action (blood ionized calcium), in words ([4]; normal rats, i.v.): Prolonged calcemic effects |
| [Aib^1,3,Gln^10,Har^11,Ala^12,Trp^14]rPTH(1-14)NH2 ([Aib]V[Aib]EIQLMHQ[hArg]AKW-NH2; N-terminus assumed; SMILES CC[C@H](C)[C@H](NC(=O)[C@H](CCC(=O)O)NC(=O)C(C)(C)NC(=O)[C@@H](NC(=O)C(C)(C)N)C(C)C)C(=O)N[C@@H](CCC(N)=O)C(=O)N[C@@H](CC(C)C)C(=O)N[C@@H](CCSC)C(=O)N[C@@H](Cc1c[nH]cn1)C(=O)N[C@@H](CCC(N)=O)C(=O)N[C@@H](CCCCNC(=N)N)C(=O)N[C@@H](C)C(=O)N[C@@H](CCCCN)C(=O)N[C@@H](Cc1c[nH]c2ccccc12)C(N)=O) [[Aib^1,3,M]PTH(1-14)] | ~5 | – | – | – |
| CC[C@H](C)[C@H](NC(=O)[C@H](CCC(=O)O)NC(=O)[C@H](C)NC(=O)[C@@H](NC(=O)[C@H](Cc1c[nH]cn1)NC(=O)[C@@H](NC(=O)[C@H](CCC(=O)O)NC(=O)[C@H](C)NC(=O)[C@@H](NC(=O)[C@H](CC(C)C)NC(=O)[C@H](Cc1c[nH]cn1)NC(=O)[C@H](Cc1c[nH]cn1)NC(=O)[C@H](CC(C)C)NC(=O)[C@H](Cc1ccccc1)NC(=O)[C@H](Cc1ccccc1)NC(=O)[C@H](CCCNC(=N)N)NC(=O)[C@H](CCCNC(=N)N)NC(=O)[C@H](CCCNC(=N)N)NC(=O)[C@H](CC(C)C)NC(=O)[C@H](CC(=O)O)NC(=O)[C@H](CCC(N)=O)NC(=O)[C@@H](NC(=O)[C@H](Cc1c[nH]cn1)NC(=O)[C@H](CCCCN)NC(=O)CNC(=O)[C@H](CC(C)C)NC(=O)[C@H](CC(N)=O)NC(=O)[C@H](Cc1c[nH]cn1)NC(=O)[C@H](CCSC)NC(=O)[C@H](CC(C)C)NC(=O)[C@H](CCC(N)=O)NC(=O)[C@@H](NC(=O)[C@H](CCC(=O)O)NC(=O)[C@H](CO)NC(=O)[C@@H](NC(=O)[C@@H](N)CO)C(C)C)[C@@H](C)CC)[C@@H](C)CC)[C@@H](C)CC)[C@@H](C)CC)[C@@H](C)O)C(=O)O [PTH(1-14)/PTHrP(15-36), hPTH(1-14)/PTHrP(15-36)] (H-SVSEIQLMHNLGKHIQDLRRRFFLHHLIAEIHTAEI-OH) | – | 1.35 | higher calcemic actions than did PTH(1-34) | – |
